# According to article PMC5301048, “Selection and early clinical evaluation of the brain‐penetrant 11β‐hydroxysteroid dehydrogenase type 1 (11β‐HSD1) inhibitor UE2343 (Xanamem™)” (British Journal of Pharmacology, 2017):
# Where two headings read alike, the source gives them in different places.
# How the values were obtained:
# 11β‐HSD1 in the liver = test: Single ascending dose study, urinary THFs/THE ratio; type: in vivo; settings: human
# Protocol: A double‐blind, randomized, placebo‐controlled single ascending dose study was carried out at Simbec Research Ltd, Merthyr Tydfil, UK. Each cohort consisted of six healthy male subjects and two females of non‐child bearing potential. Two male ‘dose leader’ subjects (1 active : 1 placebo) were dosed first in each cohort. The remainder of the cohort (5 active : 1 placebo) were dosed 24 h later. Dose cohorts were 2, 5, 10, 18, 25 and 35 mg. Safety, pharmacokinetic and pharmacodynamic assessments were made at pre‐determined time‐points during each part of the study. Dose escalation was dependent upon satisfactory review of the blinded safety (up to Day 6) and pharmacokinetic (up to 24 h post‐dose) data from the preceding cohort.
# Laboratory evaluation of clinical safety parameters was carried out using standard validated methods. Measurement of plasma pharmacodynamic markers [adrenocorticotropic hormone (ACTH), cortisol, 4‐androstenedione, testosterone and dehydroepiandrosterone sulphate (DHEA‐s)] was carried out using commercially available kits. Each method was fully validated prior to analysis. Urinary steroid metabolites were measured according to established methods (Boonen et al., 2013). UE2343 levels in plasma, urine and CSF was determined by LC–MS/MS using fully validated methods.
# The data and statistical analysis comply with the recommendations on experimental design and analysis in pharmacology (Curtis et al., 2015). Levels of probability, P < 0.05 were deemed to constitute the threshold for statistical significance. Pharmacokinetic parameters, except Tmax (time of maximum observed drug concentration), are given as mean ± coefficient of variation (CV%). Tmax is given as median ± range. For each of the pharmacodynamic parameters [ACTH, cortisol, adrenal androgens, tetrahydrocortisols (THFs)/tetrahydrocortisone (THE) ratio], the maximum % change from baseline for each subject was subjected to ANOVA. For selected data, an additional covariate factor for the baseline was also included in the ANOVA/analysis of covariance (ANCOVA) model. Associated P‐values <0.05 for each comparison have been presented.
# 11β‐HSD1 is predominantly located in the liver and adipose tissue. Cortisol (F) and cortisone (E) are cleared from the liver via the enzymes 5α‐reductase and 3α‐HSD to generate tetrahydro (TH) metabolites that are eliminated in the urine. Measurement of urinary TH metabolite ratios thus provides a surrogate measure of 11β‐HSD1 inhibition in the liver (Best and Walker, 1997). Following a single dose of UE2343, there was a statistically significant reduction in the urinary THFs/THE ratio between 0 and 4 h at doses of 18, 25 and 35 mg, equating to a reduction of 58, 55 and 50% respectively (Figure 4A).
# CYP1A2 = molecular target: T1, CYP1A2 (Homo sapiens, UniProt P05177); test: Cytochrome P450 inhibition, CYP1A2; type: in vitro ADME; settings: human liver microsomes; read-out: CYP450 isoform 1A2 IC50
# T1 construct: tissue Cyprotex Discovery Limited; host or cells: human liver microsomes
# T1 sequence (P05177 1-516): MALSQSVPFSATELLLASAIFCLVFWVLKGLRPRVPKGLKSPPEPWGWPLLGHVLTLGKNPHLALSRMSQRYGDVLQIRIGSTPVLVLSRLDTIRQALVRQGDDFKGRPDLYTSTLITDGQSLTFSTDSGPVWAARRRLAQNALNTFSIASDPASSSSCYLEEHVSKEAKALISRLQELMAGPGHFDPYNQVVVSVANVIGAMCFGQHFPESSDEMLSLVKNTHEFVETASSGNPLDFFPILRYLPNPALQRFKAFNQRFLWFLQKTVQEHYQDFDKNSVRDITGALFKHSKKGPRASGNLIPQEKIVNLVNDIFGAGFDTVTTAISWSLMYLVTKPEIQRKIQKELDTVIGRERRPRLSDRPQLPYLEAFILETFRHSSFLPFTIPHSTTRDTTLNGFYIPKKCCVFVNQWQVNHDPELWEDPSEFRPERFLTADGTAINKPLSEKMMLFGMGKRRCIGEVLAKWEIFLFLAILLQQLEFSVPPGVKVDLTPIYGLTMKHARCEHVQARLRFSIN
# Protocol: (§1) Testing was performed by Cyprotex Discovery Limited, Cheshire, UK. Six test compound concentrations (0.4, 1, 4, 10, 40 and 100 μM; final DMSO concentration 0.25%, final microsome concentration 0.25 mg·mL^−1) were either pre‐incubated for 30 min in the absence and presence of NADPH or underwent a 0 min pre‐incubation with human liver microsomes. At the end of the pre‐incubation period, the probe substrate for each cytochrome P450 (CYP450) isoform (30 μM) and NADPH (1 mM) were then added (final DMSO concentration 0.3%), and the samples were incubated for 5 min at 37°C. Probe substrates were as follows: 1A2 – phenacetin, 2C9 – diclofenac, 2C19 – mephenytoin, 2D6 – dextromethorphan, 3A4 – midazolam and testosterone. Samples were subjected to LC–MS/MS analysis to determine metabolite concentrations. A decrease in the formation of the metabolite compared with vehicle control was used to calculate an IC50 value (test compound concentration which produces 50% inhibition) for each experimental condition.
# human 11β‐HSD1 = molecular target: T2, human 11β‐HSD1 (Homo sapiens, UniProt P28845); test: Inhibition of human 11β-HSD1 in stably transfected HEK293 cells; type: cell-based
# T2 construct: a construct containing the full‐length gene coding for the human 11β‐HSD1 enzyme; expressed in transfected cells; host or cells: HEK293
# Protocol: Inhibition of human 11β‐HSD1 was determined in HEK293 cells stably transfected with a construct containing the full‐length gene coding for the human 11β‐HSD1 enzyme according to the protocol described by Sooy et al., 2010.
# CYP2C9 = molecular target: T3, CYP2C9 (Homo sapiens, UniProt P11712); test: Cytochrome P450 inhibition, CYP2C9; type: in vitro ADME; settings: human liver microsomes; read-out: CYP450 isoform 2C9 IC50
# T3 construct: tissue Cyprotex Discovery Limited; host or cells: human liver microsomes
# Protocol: as §1
# T2 sequence (P28845 whole entry): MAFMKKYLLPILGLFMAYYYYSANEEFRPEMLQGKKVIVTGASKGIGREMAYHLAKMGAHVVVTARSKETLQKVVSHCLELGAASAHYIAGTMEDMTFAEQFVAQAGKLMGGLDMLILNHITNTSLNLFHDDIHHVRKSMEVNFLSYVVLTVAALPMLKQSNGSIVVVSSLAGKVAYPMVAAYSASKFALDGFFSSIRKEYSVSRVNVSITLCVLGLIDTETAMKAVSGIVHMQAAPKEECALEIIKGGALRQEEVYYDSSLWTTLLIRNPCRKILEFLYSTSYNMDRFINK
# T3 sequence (P11712 whole entry, canonical isoform): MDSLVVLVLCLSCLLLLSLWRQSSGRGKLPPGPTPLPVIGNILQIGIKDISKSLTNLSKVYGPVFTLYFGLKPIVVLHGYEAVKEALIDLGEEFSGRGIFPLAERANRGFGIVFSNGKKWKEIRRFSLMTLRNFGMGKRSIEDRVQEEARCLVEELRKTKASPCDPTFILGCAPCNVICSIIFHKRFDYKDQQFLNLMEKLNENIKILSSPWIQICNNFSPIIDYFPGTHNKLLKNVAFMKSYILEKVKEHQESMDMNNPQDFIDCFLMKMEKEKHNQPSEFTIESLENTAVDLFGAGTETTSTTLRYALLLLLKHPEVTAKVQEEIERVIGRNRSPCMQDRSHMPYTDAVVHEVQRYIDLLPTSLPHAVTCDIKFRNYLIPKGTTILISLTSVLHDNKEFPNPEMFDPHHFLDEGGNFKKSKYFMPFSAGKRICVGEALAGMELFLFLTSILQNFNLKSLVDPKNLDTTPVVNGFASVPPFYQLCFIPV
structure (smiles),measurement,setting,value
O=C(c1csc(-c2cn[nH]c2)c1)N1C2CCC1CC(O)(c1ncccn1)C2 (centres unmarked) [compound 4],reduction in the urinary THFs/THE ratio,"11β‐HSD1 in the liver; single dose 10 mg, 4–8 h",79%
same,reduction in the urinary THFs/THE ratio,"11β‐HSD1 in the liver; single dose 18 mg, 0–4 h",58%
same,reduction in the urinary THFs/THE ratio,"11β‐HSD1 in the liver; single dose 18 mg, 4–8 h",86%
same,reduction in the urinary THFs/THE ratio,"11β‐HSD1 in the liver; single dose 25 mg, 0–4 h",55%
same,reduction in the urinary THFs/THE ratio,"11β‐HSD1 in the liver; single dose 25 mg, 4–8 h",83%
same,reduction in the urinary THFs/THE ratio,"11β‐HSD1 in the liver; single dose 35 mg, 0–4 h",50%
same,reduction in the urinary THFs/THE ratio,"11β‐HSD1 in the liver; single dose 35 mg, 4–8 h",83%
same,IC50,CYP1A2,> 50000 nM
same,IC50,"human 11β‐HSD1; HEK293 cell IC50 in ng·mL^−1, read-out: IC50 value (11β‐HSD1) expressed as mass concentration (converted)",23.6 nM
same,IC50,"human 11β‐HSD1; HEK293 cells, mean ± SD [n], read-out: Human 11β‐HSD1 IC50 in HEK293 cells",24 ± 15 nM
same,IC50,CYP2C9,> 50000 nM
